Test results as given in the kinase profiling compilation of Christmann-Franck et al. (2016).

Key:
Assay in all cases: KINOMEscan competition binding
Conditions in all cases: compound 10.0 µM
[1] = biological target: BRAF (human) (UniProt P15056)
[2] = biological target: ACVR2B (human) (UniProt Q13705)
[3] = biological target: NLK (human) (UniProt Q9UBE8)
[4] = biological target: LCK (human) (UniProt P06239)
[5] = biological target: MAPK1 (human) (UniProt P28482)
[6] = biological target: PLK4 (human) (UniProt O00444)
[7] = biological target: MYO3B (human) (UniProt Q8WXR4)
Chain of MYO3B (human) (Q8WXR4 whole entry, looked up): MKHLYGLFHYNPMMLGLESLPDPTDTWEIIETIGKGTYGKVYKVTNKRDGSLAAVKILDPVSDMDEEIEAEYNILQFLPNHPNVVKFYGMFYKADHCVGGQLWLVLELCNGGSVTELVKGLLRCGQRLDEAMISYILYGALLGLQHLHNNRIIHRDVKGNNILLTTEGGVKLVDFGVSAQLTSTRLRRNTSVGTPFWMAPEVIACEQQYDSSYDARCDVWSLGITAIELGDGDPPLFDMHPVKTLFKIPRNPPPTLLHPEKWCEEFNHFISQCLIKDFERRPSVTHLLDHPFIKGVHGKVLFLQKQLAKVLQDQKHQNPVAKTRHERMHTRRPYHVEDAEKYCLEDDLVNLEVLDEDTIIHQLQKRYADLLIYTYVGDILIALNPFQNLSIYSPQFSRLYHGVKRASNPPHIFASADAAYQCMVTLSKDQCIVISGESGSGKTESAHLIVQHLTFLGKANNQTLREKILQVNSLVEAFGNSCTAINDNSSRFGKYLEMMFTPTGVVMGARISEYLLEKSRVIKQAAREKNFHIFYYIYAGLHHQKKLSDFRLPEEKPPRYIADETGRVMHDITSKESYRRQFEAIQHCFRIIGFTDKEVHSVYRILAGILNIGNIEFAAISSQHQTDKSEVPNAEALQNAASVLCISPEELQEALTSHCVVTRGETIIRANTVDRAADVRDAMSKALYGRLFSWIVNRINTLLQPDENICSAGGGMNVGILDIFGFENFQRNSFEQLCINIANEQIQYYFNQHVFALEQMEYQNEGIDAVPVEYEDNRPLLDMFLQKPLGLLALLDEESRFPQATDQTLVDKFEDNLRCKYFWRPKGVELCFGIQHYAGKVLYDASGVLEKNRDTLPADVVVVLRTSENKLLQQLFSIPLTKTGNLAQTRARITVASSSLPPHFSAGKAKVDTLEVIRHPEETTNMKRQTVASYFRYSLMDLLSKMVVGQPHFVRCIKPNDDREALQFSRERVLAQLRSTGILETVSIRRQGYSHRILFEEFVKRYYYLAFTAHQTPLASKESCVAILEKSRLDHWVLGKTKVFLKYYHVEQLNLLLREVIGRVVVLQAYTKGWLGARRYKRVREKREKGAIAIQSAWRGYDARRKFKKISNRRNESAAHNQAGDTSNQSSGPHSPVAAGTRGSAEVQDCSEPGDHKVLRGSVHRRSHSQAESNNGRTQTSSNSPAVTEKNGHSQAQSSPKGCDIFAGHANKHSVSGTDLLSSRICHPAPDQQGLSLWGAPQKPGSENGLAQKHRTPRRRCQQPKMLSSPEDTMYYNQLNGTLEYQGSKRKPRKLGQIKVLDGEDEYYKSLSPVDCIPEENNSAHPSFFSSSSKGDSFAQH

[8] = biological target: EPHB4 (human) (UniProt P54760)
[9] = biological target: CSNK2A2 (human) (UniProt P19784)
[10] = biological target: CHEK1 (human) (UniProt O14757)
[11] = biological target: MAST1 (human) (UniProt Q9Y2H9)
[12] = biological target: RIOK1 (human) (UniProt Q9BRS2)
[13] = biological target: EPHB2 (human) (UniProt P29323)
[14] = biological target: RIPK1 (human) (UniProt Q13546)
[15] = biological target: FGFR1 (human) (UniProt P11362)
[16] = biological target: CSNK1A1 (human) (UniProt P48729)
[17] = biological target: AURKC (human) (UniProt Q9UQB9)
Chain of AURKC (human) (Q9UQB9 whole entry, looked up): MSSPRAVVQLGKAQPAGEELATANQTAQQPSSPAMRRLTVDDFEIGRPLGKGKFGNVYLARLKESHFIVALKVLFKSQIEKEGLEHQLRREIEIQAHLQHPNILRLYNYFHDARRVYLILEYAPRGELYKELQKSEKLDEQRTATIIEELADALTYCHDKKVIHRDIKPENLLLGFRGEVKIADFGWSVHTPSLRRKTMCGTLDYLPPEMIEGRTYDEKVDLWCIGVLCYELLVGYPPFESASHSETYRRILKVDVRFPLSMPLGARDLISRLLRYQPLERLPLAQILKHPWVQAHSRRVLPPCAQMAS

[18] = test system: KIT (human), P10721 [D816H]
[19] = biological target: ACVRL1 (human) (UniProt P37023)
[20] = test system: PIK3CA (human), P42336 [M1043I]
[21] = biological target: CDK8 (human) (UniProt P49336)
Chain of CDK8 (human) (P49336 whole entry, looked up): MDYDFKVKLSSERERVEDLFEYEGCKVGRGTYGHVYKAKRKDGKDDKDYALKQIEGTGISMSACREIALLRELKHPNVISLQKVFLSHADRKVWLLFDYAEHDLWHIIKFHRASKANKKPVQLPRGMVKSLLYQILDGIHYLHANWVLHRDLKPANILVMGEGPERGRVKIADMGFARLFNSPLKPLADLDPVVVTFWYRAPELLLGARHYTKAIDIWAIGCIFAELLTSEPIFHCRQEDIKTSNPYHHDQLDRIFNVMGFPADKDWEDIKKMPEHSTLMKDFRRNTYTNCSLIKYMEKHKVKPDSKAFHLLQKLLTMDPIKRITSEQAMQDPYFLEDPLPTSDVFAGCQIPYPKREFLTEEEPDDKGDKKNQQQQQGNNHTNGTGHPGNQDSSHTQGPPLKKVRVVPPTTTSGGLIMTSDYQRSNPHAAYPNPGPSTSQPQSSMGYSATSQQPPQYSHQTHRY

[22] = biological target: STK33 (human) (UniProt Q9BYT3)
[23] = biological target: PAK7 (human) (UniProt Q9P286)
Chain of PAK7 (human) (Q9P286 whole entry, looked up): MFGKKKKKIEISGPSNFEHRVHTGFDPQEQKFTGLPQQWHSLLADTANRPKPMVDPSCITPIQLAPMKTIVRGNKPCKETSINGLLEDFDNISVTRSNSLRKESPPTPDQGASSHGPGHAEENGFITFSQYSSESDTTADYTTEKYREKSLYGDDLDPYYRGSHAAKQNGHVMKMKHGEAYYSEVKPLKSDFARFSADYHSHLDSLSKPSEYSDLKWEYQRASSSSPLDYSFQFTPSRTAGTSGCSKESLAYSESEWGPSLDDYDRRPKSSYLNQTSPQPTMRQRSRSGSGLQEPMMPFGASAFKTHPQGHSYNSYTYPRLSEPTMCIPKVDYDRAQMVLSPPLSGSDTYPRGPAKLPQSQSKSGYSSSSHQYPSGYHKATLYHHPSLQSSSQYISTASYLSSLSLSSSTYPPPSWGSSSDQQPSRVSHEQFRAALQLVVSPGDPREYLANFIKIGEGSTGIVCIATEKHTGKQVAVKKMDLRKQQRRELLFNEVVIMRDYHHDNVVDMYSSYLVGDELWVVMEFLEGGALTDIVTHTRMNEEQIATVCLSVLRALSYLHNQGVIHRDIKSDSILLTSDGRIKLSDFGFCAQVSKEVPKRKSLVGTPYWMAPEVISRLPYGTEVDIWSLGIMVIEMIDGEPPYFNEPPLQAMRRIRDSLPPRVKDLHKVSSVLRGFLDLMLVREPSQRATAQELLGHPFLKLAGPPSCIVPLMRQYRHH

[24] = biological target: CSNK1D (human) (UniProt P48730)
Chain of CSNK1D (human) (P48730 whole entry, looked up): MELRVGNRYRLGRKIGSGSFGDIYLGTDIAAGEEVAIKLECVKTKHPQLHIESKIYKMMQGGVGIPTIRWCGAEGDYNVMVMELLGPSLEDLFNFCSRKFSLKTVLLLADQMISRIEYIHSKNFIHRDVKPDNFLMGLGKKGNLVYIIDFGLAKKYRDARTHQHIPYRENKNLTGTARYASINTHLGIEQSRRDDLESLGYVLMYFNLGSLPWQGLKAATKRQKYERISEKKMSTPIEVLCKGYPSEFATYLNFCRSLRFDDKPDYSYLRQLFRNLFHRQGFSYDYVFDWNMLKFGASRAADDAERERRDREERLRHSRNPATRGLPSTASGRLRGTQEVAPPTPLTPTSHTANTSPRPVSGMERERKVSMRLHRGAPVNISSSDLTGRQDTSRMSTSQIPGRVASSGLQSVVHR

[25] = biological target: EPHA4 (human) (UniProt P54764)
[26] = biological target: DCLK3 (human) (UniProt Q9C098)
Chain of DCLK3 (human) (Q9C098 whole entry, looked up): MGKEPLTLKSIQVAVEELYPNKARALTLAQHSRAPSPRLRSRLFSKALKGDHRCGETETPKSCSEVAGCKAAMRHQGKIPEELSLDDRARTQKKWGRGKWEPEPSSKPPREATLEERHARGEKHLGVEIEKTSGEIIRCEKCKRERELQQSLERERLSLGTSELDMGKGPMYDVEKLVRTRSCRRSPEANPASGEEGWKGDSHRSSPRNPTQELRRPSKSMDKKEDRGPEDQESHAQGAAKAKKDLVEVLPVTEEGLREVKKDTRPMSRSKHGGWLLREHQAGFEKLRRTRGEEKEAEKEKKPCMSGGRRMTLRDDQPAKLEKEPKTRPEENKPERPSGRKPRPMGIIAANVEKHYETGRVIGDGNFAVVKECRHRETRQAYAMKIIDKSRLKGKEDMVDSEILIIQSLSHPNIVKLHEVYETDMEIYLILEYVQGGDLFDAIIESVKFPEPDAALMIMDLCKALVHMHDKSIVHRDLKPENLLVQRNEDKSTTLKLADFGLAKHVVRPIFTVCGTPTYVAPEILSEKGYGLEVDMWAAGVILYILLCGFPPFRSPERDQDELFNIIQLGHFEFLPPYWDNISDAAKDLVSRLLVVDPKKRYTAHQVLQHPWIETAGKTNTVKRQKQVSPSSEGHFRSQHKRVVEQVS

[27] = biological target: MAP4K5 (human) (UniProt Q9Y4K4)
[28] = test system: CPK1 (P.falciparum)
[29] = biological target: PAK2 (human) (UniProt Q13177)
Chain of PAK2 (human) (Q13177 whole entry, looked up): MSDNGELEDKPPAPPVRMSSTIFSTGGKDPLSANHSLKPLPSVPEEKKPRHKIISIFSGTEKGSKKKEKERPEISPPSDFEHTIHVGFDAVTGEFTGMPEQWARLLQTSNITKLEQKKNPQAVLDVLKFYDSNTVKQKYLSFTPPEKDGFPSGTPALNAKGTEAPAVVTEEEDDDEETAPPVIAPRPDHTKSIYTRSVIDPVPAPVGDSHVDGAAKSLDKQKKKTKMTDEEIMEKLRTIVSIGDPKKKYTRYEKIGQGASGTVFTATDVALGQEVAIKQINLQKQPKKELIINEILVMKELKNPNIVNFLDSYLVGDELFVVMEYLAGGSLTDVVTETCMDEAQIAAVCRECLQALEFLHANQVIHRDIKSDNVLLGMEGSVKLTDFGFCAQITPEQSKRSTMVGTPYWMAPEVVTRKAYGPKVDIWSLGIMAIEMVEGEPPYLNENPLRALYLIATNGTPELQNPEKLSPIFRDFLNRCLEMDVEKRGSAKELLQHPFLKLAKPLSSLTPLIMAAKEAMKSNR

[30] = biological target: CSNK1G3 (human) (UniProt Q9Y6M4)
[31] = biological target: CDK4 CCND3 (human) (UniProt P11802+P30281)
[32] = biological target: ADCK4 (human) (UniProt Q96D53)
[33] = biological target: TEC (human) (UniProt P42680)
[34] = biological target: STK16 (human) (UniProt O75716)
[35] = biological target: BLK (human) (UniProt P51451)
[36] = biological target: PTK2B (human) (UniProt Q14289)
[37] = biological target: GSG2 (human) (UniProt Q8TF76)
[38] = biological target: SGK1 (human) (UniProt O00141)
[39] = biological target: WNK1 (human) (UniProt Q9H4A3)

Chain of LCK (human) (P06239 whole entry, looked up): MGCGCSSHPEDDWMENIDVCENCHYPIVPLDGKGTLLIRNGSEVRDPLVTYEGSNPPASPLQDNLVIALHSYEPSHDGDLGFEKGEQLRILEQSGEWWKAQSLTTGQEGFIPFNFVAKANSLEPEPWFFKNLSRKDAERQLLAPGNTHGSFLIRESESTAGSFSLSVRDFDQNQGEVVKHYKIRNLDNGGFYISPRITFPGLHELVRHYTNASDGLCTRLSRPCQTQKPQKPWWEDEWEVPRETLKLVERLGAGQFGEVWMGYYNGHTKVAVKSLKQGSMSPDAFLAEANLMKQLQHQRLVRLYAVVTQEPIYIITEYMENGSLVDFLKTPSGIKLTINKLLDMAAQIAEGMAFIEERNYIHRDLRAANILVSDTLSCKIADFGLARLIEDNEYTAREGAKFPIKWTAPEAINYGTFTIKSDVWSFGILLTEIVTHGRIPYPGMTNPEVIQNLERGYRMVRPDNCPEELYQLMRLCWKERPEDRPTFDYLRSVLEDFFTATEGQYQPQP

Row | SMILES | kinase still bound, per cent of control [1] [%] | kinase still bound, per cent of control [2] [%] | kinase still bound, per cent of control [3] [%] | kinase still bound, per cent of control [4] [%] | kinase still bound, per cent of control [5] [%] | kinase still bound, per cent of control [6] [%] | kinase still bound, per cent of control [7] [%] | kinase still bound, per cent of control [8] [%] | kinase still bound, per cent of control [9] [%] | kinase still bound, per cent of control [10] [%] | kinase still bound, per cent of control [11] [%] | kinase still bound, per cent of control [12] [%] | kinase still bound, per cent of control [13] [%] | kinase still bound, per cent of control [14] [%] | kinase still bound, per cent of control [15] [%] | kinase still bound, per cent of control [16] [%] | kinase still bound, per cent of control [17] [%] | kinase still bound, per cent of control [18] [%] | kinase still bound, per cent of control [19] [%] | kinase still bound, per cent of control [20] [%] | other results
1 | N#C/C(=C1/Nc2ccccc2S1)c1ccnc(NCCc2cccnc2)n1 | 14 | 98 | 100 | 100 | 84 | 68 | 100 | 100 | 1 | 100 | 100 | 30 | 100 | 100 | 98 | 9.8 | 67 | 72 | 100 | 84 | kinase still bound, per cent of control [21]: 100%; kinase still bound, per cent of control [22]: 86%; kinase still bound, per cent of control [23]: 76%; kinase still bound, per cent of control [24]: 42%; kinase still bound, per cent of control [25]: 100%; kinase still bound, per cent of control [26]: 100%; kinase still bound, per cent of control [27]: 94%; kinase still bound, per cent of control [28]: 4.2%; kinase still bound, per cent of control [29]: 34%; kinase still bound, per cent of control [30]: 100%; kinase still bound, per cent of control [31]: 49%; kinase still bound, per cent of control [32]: 45%; kinase still bound, per cent of control [33]: 92%; kinase still bound, per cent of control [34]: 13%; kinase still bound, per cent of control [35]: 100%; kinase still bound, per cent of control [36]: 89%
2 | CCCS(=O)(=O)Nc1ccc(F)c(C(=O)c2c[nH]c3ncc(Cl)cc23)c1F | 0 | 28 | 100 | 3.2 | 100 | 27 | 47 | 100 | 12 | 82 | 100 | 100 | 100 | 53 | 34 | 84 | 100 | 93 | 100 | 76 | kinase still bound, per cent of control [21]: 2.2%; kinase still bound, per cent of control [22]: 85%; kinase still bound, per cent of control [23]: 44%; kinase still bound, per cent of control [24]: 91%; kinase still bound, per cent of control [25]: 100%; kinase still bound, per cent of control [26]: 26%; kinase still bound, per cent of control [27]: 22%; kinase still bound, per cent of control [28]: 0%; kinase still bound, per cent of control [29]: 37%; kinase still bound, per cent of control [30]: 79%; kinase still bound, per cent of control [31]: 70%; kinase still bound, per cent of control [32]: 100%; kinase still bound, per cent of control [33]: 100%; kinase still bound, per cent of control [34]: 18%; kinase still bound, per cent of control [35]: 1.7%; kinase still bound, per cent of control [36]: 83%
3 | CNC(=O)Nc1ccc(-c2nc(N3CC4CCC(C3)O4)c3cnn(C4CCC5(CC4)OCCO5)c3n2)cc1 | 100 | 77 | 85 | 100 | 87 | 75 | 91 | 100 | 100 | 100 | 95 | 91 | 78 | 83 | 100 | 100 | 86 | 86 | 100 | 4.4 | kinase still bound, per cent of control [37]: 100%; kinase still bound, per cent of control [38]: 100%; kinase still bound, per cent of control [21]: 100%; kinase still bound, per cent of control [22]: 82%; kinase still bound, per cent of control [23]: 100%; kinase still bound, per cent of control [24]: 92%; kinase still bound, per cent of control [25]: 100%; kinase still bound, per cent of control [26]: 100%; kinase still bound, per cent of control [27]: 83%; kinase still bound, per cent of control [28]: 86%; kinase still bound, per cent of control [29]: 99%; kinase still bound, per cent of control [30]: 48%; kinase still bound, per cent of control [39]: 95%; kinase still bound, per cent of control [31]: 92%; kinase still bound, per cent of control [32]: 100%; kinase still bound, per cent of control [33]: 84%; kinase still bound, per cent of control [34]: 98%; kinase still bound, per cent of control [35]: 96%; kinase still bound, per cent of control [36]: 100%
4 | O=c1[nH]c2ccccc2n1C1CCN(Cc2ccc(-c3nc4cc5[nH]cnc5cc4nc3-c3ccccc3)cc2)CC1 | 87 | 100 | 87 | 72 | 100 | 60 | 100 | 100 | 92 | 100 | 100 | 76 | 72 | 100 | 73 | 50 | 88 | 100 | 100 | 100 | kinase still bound, per cent of control [37]: 100%; kinase still bound, per cent of control [38]: 71%; kinase still bound, per cent of control [21]: 100%; kinase still bound, per cent of control [22]: 100%; kinase still bound, per cent of control [23]: 58%; kinase still bound, per cent of control [24]: 18%; kinase still bound, per cent of control [25]: 100%; kinase still bound, per cent of control [26]: 91%; kinase still bound, per cent of control [27]: 64%; kinase still bound, per cent of control [28]: 40%; kinase still bound, per cent of control [29]: 74%; kinase still bound, per cent of control [30]: 93%; kinase still bound, per cent of control [39]: 89%; kinase still bound, per cent of control [31]: 100%; kinase still bound, per cent of control [32]: 100%; kinase still bound, per cent of control [33]: 100%; kinase still bound, per cent of control [34]: 92%; kinase still bound, per cent of control [35]: 76%; kinase still bound, per cent of control [36]: 91%
